Among the test systems are CCRF-CEM leukemia; HCT-116 colon; HOP-62 NSCLC; KM12 colon; MALME-3M melanoma; MDA-MB-435; NCI-H23 lung; OVCAR-4 ovarian; TK-10 renal; UO-31 renal.
Common to all, as to assay: inhibition of tumour cell growth, NCI panel, 48 h

Values joined by “and” are separate entries in the source; they are usually repeats but may differ in a detail not shown here. Equal values may be shown once.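 Tested at 5 concentrations; 48 h exposure; 96-well plates; endpoints linearly interpolated, else capped at highest concentration. GI50 = concentration required for 50% inhibition of growth. The concentration for full growth arrest is given as TGI.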 Bounds are passed on as bounds.

As to `CN(/N=C\c1ccc2ccccc2c1)C1=NCCCN1`, the TGI was 48.6 µM in the assay with CCRF-CEM leukemia; 28.9 µM in the assay on HCT-116 colon; 27.4 µM with HOP-62 NSCLC; 32.1 µM in the assay on KM12 colon; 26.4 µM in the assay on MALME-3M melanoma; 30.8 µM in the assay on MDA-MB-435. Further, the TGI with NCI-H23 lung was over 100 µM; in the assay on OVCAR-4 ovarian it was over 100 µM; in the assay with TK-10 renal, 34.2 µM; in the assay on UO-31 renal, 25.2 µM.
`CC1CCCN1CCCOC(=O)c1ccc(OC2C=CCCC2)cc1` (centres undefined): the TGI in the assay on CCRF-CEM leukemia is 66.7 µM; with HCT-116 colon, 35.8 µM; in the assay with HOP-62 NSCLC, 42.1 µM; in the assay on KM12 colon it was over 100 µM; in the assay on MALME-3M melanoma it was 34.4 µM; in the assay on MDA-MB-435, over 100 µM. Also, the TGI in the assay with NCI-H23 lung was 63.3 µM; in the assay with OVCAR-4 ovarian, over 100 µM; with TK-10 renal, 88.8 µM; in the assay on UO-31 renal, over 100 µM.
Consider `O=C(NCc1ccccc1Cl)c1c(O)c2ccccc2[nH]c1=O`, for which the TGI in the assay on CCRF-CEM leukemia is over 100 µM; with HCT-116 colon, over 100 µM; in the assay on HOP-62 NSCLC it was 41 µM; in the assay with KM12 colon, over 100 µM; in the assay on MALME-3M melanoma, over 100 µM; in the assay on MDA-MB-435 it was over 100 µM. Besides, the TGI is over 100 µM with NCI-H23 lung, 23.2 µM with OVCAR-4 ovarian, over 100 µM in the assay with TK-10 renal and 33.4 µM in the assay with UO-31 renal.
As to `CC(=O)C(C(C)=O)[C@H]1OC(C)(C)O[C@H]1[C@H]1COC(C)(C)O1`, the TGI in the assay on CCRF-CEM leukemia, in the assay on HCT-116 colon, in the assay with HOP-62 NSCLC, in the assay with KM12 colon, with MALME-3M melanoma and in the assay with MDA-MB-435 was over 100 µM each time. Also, the TGI with NCI-H23 lung, in the assay with OVCAR-4 ovarian, with TK-10 renal and in the assay on UO-31 renal was over 100 µM in each case.
With `CCOC(=O)c1cn(CC)c2ccc3c(c2c1=O)S(=O)(=O)C=C3`, the TGI in the assay on CCRF-CEM leukemia, in the assay with HCT-116 colon, in the assay with HOP-62 NSCLC, in the assay on KM12 colon, in the assay with MALME-3M melanoma and with MDA-MB-435 was over 100 µM in each case. Besides, the TGI in the assay on NCI-H23 lung, in the assay with OVCAR-4 ovarian, with TK-10 renal and in the assay with UO-31 renal was over 100 µM in each case.
Regarding `C=CCOC(=O)N1c2ccc(O)cc2[C@@]23O[C@@]24[C@@H]1C#C/C=C\C#C[C@]3(O)C(=O)C[C@@H]4C`, the TGI in the assay with CCRF-CEM leukemia, with HCT-116 colon, in the assay on HOP-62 NSCLC, in the assay with KM12 colon, with MALME-3M melanoma and in the assay on MDA-MB-435 was over 100 µM throughout. Moreover, the TGI was over 100 µM with NCI-H23 lung, 50.1 µM in the assay on OVCAR-4 ovarian, over 100 µM in the assay with TK-10 renal and over 100 µM with UO-31 renal.
With `COc1cc2c(cc1OC)C(=O)/C(=C/c1ccc(N(C)C)cc1)CC2`, the TGI in the assay with CCRF-CEM leukemia, in the assay on HCT-116 colon, in the assay on HOP-62 NSCLC, with KM12 colon, in the assay on MALME-3M melanoma and in the assay with MDA-MB-435 was over 10 µM each time. Moreover, the TGI in the assay with NCI-H23 lung, in the assay on OVCAR-4 ovarian, in the assay on TK-10 renal and with UO-31 renal was over 10 µM in each case.
Regarding `c1cc2c(cc1[C@@H]1OC[C@@H]3[C@H]1CO[C@H]3c1ccc3c(c1)OCO3)OCO2`, the TGI with CCRF-CEM leukemia was over 100 µM; in the assay on HCT-116 colon, over 100 µM; in the assay with HOP-62 NSCLC, over 100 µM; with KM12 colon it was 71 µM; in the assay with MALME-3M melanoma, over 100 µM; with MDA-MB-435, over 100 µM. Besides, the TGI is over 100 µM in the assay on NCI-H23 lung, over 100 µM in the assay with OVCAR-4 ovarian, 93.8 µM in the assay with TK-10 renal and over 100 µM with UO-31 renal.
As to `CC[C@@]1(O)C(=O)OCc2c1cc1n(c2=O)Cc2c-1nc1ccccc1c2C=Nc1ccccc1N[C@@H]1c2cc3c(cc2[C@@H](c2cc(OC)c(O)c(OC)c2)[C@H]2C(=O)OC[C@@H]21)OCO3`, the TGI with CCRF-CEM leukemia is over 100 µM; in the assay with HCT-116 colon, 4.48 µM and 2.5 µM; in the assay on HOP-62 NSCLC, 0.466 µM and 0.154 µM; in the assay on KM12 colon it was > 41.6 µM and 8.08 µM; with MALME-3M melanoma, 25.6 µM and 3.78 µM; in the assay with MDA-MB-435 it was 24.3 µM and > 50 µM. Moreover, the TGI in the assay with OVCAR-4 ovarian was over 62.6 µM; with UO-31 renal, 3.12 µM and 0.593 µM. For the same molecule, the GI50 was 4.99 µM and 1.74 µM in the assay with KM12 colon; 0.358 µM and 0.45 µM in the assay with MDA-MB-435; 0.0356 µM and 0.0156 µM with NCI-H23 lung; 17.2 µM in the assay with OVCAR-4 ovarian; 3.49 µM and 0.549 µM in the assay on TK-10 renal; 0.129 µM and 0.0745 µM in the assay on UO-31 renal.
For `Cc1ccc(NCCN(C)C)c2c(=O)c3cc(O)ccc3sc12`, the TGI came out at 5.7 µM with CCRF-CEM leukemia; 8.79 µM in the assay on HCT-116 colon; 6.21 µM with HOP-62 NSCLC; 11.4 µM in the assay on KM12 colon; 11.2 µM in the assay with MALME-3M melanoma; 2.94 µM with MDA-MB-435. Further, the TGI in the assay with NCI-H23 lung was 16.8 µM; in the assay with OVCAR-4 ovarian, 14.1 µM; with TK-10 renal, 33.9 µM; with UO-31 renal it was 17.4 µM.
For `O=C1c2ccccc2C(=O)c2sc(Nc3cc(Cl)ccc3Cl)nc21`, the TGI in the assay with CCRF-CEM leukemia is over 100 µM; in the assay on HCT-116 colon it was 13.7 µM; with HOP-62 NSCLC it was 28.9 µM; with KM12 colon, 26.5 µM; with MALME-3M melanoma, 3.33 µM; in the assay with MDA-MB-435, 3.85 µM. Moreover, the TGI amounted to 28.7 µM in the assay on NCI-H23 lung, 18.2 µM with OVCAR-4 ovarian, 29.4 µM in the assay with TK-10 renal and 19.4 µM with UO-31 renal.
For `Cn1c(=O)c2c(nc(N/N=C3/SCC(=O)N3Cc3ccccc3)n2C)n(C)c1=O`, the TGI with CCRF-CEM leukemia, in the assay on HCT-116 colon, in the assay on HOP-62 NSCLC, with KM12 colon, in the assay with MALME-3M melanoma and with MDA-MB-435 was over 100 µM each time. Besides, the TGI with NCI-H23 lung, in the assay on OVCAR-4 ovarian, in the assay with TK-10 renal and in the assay on UO-31 renal was over 100 µM in each case.

Source of the values: PubChem BioAssay (NCI).
